In article PMC7343696 (EJNMMI Research, 2020):
“Also recorded” adds a separate entry of the source. Counter-ions that a name gives are not always drawn. Like-named read-outs stand apart in the source and are kept apart here. Marks after values point to notes of the source that are not given here.

Experiments:
[1] = molecular target: T1, human platelets (uptake via SERT) (Homo sapiens, UniProt P31645); experiment: [3H]serotonin uptake inhibition in isolated human platelets; assay type: cell-based; conditions: 15 min
T1 construct: endogenous in cells; host or cells: human platelets in platelet-rich plasma from patients with polycythemia vera or secondary polycythemia
T1 sequence (P31645 whole entry): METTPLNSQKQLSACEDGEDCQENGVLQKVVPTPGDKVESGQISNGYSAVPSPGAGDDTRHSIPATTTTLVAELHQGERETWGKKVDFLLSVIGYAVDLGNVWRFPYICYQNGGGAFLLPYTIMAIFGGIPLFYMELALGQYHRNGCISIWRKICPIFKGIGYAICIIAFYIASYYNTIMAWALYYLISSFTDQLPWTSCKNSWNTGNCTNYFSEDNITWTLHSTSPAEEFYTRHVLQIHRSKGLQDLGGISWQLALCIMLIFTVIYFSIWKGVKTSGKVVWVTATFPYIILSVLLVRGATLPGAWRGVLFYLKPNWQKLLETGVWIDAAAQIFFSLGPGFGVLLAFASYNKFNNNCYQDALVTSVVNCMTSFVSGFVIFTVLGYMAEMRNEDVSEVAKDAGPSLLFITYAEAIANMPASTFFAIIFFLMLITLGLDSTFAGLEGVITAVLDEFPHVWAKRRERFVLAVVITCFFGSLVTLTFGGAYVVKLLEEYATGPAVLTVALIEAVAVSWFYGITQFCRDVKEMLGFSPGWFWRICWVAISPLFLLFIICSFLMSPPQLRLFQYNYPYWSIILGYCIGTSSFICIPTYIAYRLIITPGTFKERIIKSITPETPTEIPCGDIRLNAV

[2] = molecular target: T1, human platelets (uptake via SERT); experiment: [125I]MIBG uptake inhibition in isolated human platelets; assay type: cell-based
[3] = molecular target: T2, human SK-N-SH neuroblastoma cells (uptake via NET) (Homo sapiens, UniProt P23975); experiment: [125I]MIBG uptake inhibition in cultured SK-N-SH neuroblastoma cells; assay type: cell-based
T2 construct: host or cells: SK-N-SH human neuroblastoma cells
T2 sequence (P23975 whole entry): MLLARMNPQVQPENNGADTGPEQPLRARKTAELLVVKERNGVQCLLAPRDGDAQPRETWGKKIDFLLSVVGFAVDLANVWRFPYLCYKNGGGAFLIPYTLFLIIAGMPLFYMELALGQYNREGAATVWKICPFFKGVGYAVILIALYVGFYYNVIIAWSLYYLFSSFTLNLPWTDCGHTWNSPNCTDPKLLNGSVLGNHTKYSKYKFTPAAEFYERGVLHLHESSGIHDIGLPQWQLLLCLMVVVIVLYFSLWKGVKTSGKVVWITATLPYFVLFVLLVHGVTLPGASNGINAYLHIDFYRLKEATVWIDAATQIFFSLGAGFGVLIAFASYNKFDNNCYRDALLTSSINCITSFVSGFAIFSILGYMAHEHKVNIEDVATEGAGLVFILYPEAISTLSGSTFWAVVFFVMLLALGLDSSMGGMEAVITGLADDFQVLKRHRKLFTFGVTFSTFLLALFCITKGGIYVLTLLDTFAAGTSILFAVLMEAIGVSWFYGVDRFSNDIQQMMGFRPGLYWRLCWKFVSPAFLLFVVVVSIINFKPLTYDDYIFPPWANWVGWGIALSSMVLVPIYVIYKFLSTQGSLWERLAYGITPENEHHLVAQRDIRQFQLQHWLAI

[4] = system: SK-N-SH neuroblastoma xenografts; experiment: [125I]MIBG tumor uptake in mice bearing SK-N-SH neuroblastoma xenografts; assay type: in vivo, BALB/c nu/nu mice; conditions: for Effect on [125I]MIBG accumulation in neuroblastoma xenografts (in words): inhibitor IP 30 min before [125I]MIBG, tissues 1 h after, doses as in Fig. 6
Procedure: (§1) Female athymic BALB/c nu/nu mice were bred in the animal facility of the Netherlands Cancer Institute. Experiments were performed in accordance with the national regulations for animal experimentations and approved by the local animal welfare committee. Subcutaneous (s.c.) neuroblastoma tumors consisted of either first passages of intrasplenic-induced SK-N-SH xenografts or later passages from s.c. propagation of the xenograft. […] The tumor volume doubling time was on average 5 days. The toxicity of each monoamine transporter inhibitor was assessed in 2 to 5 non-tumor-bearing nude mice by 1 h careful observation following intraperitoneal (IP) injection of the monoamine transporter inhibitor. Applied inhibitor doses were based on earlier studies (summarized in Electronic Supplementary Material: Table I) and varied from 2 to 50 mg/kg. Provided that no toxicity was observed, plasma of these animals was subsequently analyzed in the ex vivo bioassay described below. […]. First, mice were treated IP with either a monoamine transporter inhibitor or sodium chloride (control). Thirty minutes later, they received an injection in the tail vein with 1 μg MIBG spiked with 4.0–8.0 kBq [^125I]MIBG. One hour after administration of the radiopharmaceutical, the animals were bled from the carotid artery under ether anesthesia and dissected. Tumors and tissues of interest were blotted to remove adhering blood, weighted, and gamma counted. The [^125I]MIBG tissue levels were expressed as the percentage of the injected radioactivity dose per gram tissue. Mice bearing PC12 pheochromocytoma xenografts induced by direct s.c. injections of PC12 cells were used in similar uptake and inhibition experiments.

[5] = system: PC12 pheochromocytoma xenografts; experiment: [125I]MIBG tumor uptake in mice bearing PC12 pheochromocytoma xenografts; assay type: in vivo; conditions: for Effect on tumor MIBG uptake in PC12 pheochromocytoma xenografts (in words): data not shown
Procedure: as §1

[6] = cited from earlier work
[7] = system: tryptophan or 5-hydroxytryptophan induced symptoms; conditions: mice, assay type I, cited from earlier work
[8] = design: method as in ref (3) (a number printed in a supplementary file, which may have a reference list of its own: not looked up in the article's list); conditions: mice, 24 mg/kg i.v., fifteen min after administration; ref (3); cited from earlier work
platelet function = conditions: plasma concentrations that will inhibit SERT; cited from earlier work
[9] = system: amphetamine-stimulated locomotor activity; design: method as in ref (8) (a number printed in a supplementary file, which may have a reference list of its own: not looked up in the article's list); conditions: mice, i.p., assay type IV; ref (8); cited from earlier work
SERT [10] = molecular target: T3, SERT (Homo sapiens, UniProt P31645); assay type: cell-based
T3 construct: host or cells: HEK293 (ATCC CRL-3216), transient transfection
T3 sequence (P31645 whole entry): as the sequence (P31645 whole entry) above

NET = molecular target: T4, NET (Homo sapiens, UniProt P23975); experiment: [125I]MIBG uptake and its inhibition in NET-transfected HEK293 cells (HEK-NET); assay type: cell-based
T4 construct: host or cells: HEK293 (ATCC CRL-3216), transient transfection
T4 sequence (P23975 whole entry): as the sequence (P23975 whole entry) above

SERT [11] = conditions: cited from earlier work
[12] = [125I]MIBG as substrate, HEK-SERT
[13] = [125I]MIBG as substrate, HEK-NET

CC(N)C(=O)OC(C)(C)Cc1ccc(Cl)cc1 (centres unmarked) [Alaproclate, alaproclate-HCl]
IC50 ([1]; 10^−8 M substrate, 37 °C): 516 nM
IC50 ([2]; 10^−8 M substrate, 37 °C, 4 h): 38 nM
IC50 [3]: 43400 nM
Selectivity factor, IC50 ratio [3]: 1158

CN(C)CCCC1(c2ccc(F)cc2)OCc2cc(C#N)ccc21 (centres unmarked) [Citalopram, citalopram-HBr]
Effect on [125I]MIBG accumulation in neuroblastoma xenografts (in words) [4]: not significantly affected
Effect on tumor MIBG uptake in PC12 pheochromocytoma xenografts (in words) [5]: no significant difference
Plasma half-life ([6]; after oral ingestion): 33 to 54 h
Time to maximum plasma drug levels ([6]; after oral ingestion): ≤ 4 h
Absorption after oral ingestion (in words) [6]: completely absorbed
50 % effective dose ([7]; i.p., ref (1)): 0.9^c mg/kg
50 % effective dose ([7]; oral, ref (2)): 1.2^c mg/kg
Plasma level [8]: 6 µM
Effect on platelet function (in words) (platelet function): no effect on platelet function

CNCCCN1c2ccccc2CCc2ccccc21 [Desipramine, desipramine-HCl]
Decrease of [125I]MIBG accumulation in neuroblastoma xenografts ([4]; 20 mg/kg IP 30 min before [125I]MIBG): 60%
Effect on [125I]MIBG accumulation in neuroblastoma xenografts (in words) [4]: profoundly decreased
Effect on tumor MIBG uptake in PC12 pheochromocytoma xenografts (in words) [5]: same reduction of MIBG uptake as seen in SK-N-SH neuroblastoma xenografts
50 % effective dose ([7]; i.p., ref (1)): >39^c mg/kg
50 % effective dose ([7]; oral, ref (2, 4, 7)): 20 – 320^c mg/kg
Reported effective dose (cell not marked as 50 % effective dose) [9]: 5 to 36 mg/kg

CNCCC(Oc1ccc(C(F)(F)F)cc1)c1ccccc1 (centres unmarked) [Fluoxetine, fluoxetine-HCl]
Elimination half-life [6]: 24 to 96 h

COCCCC/C(=N\OCCN)c1ccc(C(F)(F)F)cc1 [Fluvoxamine, fluvoxamine-maleate]
Inhibition of [125I]MIBG uptake in HEK-SERT cells (in words) (SERT [10]; 1 h, substrate 10^−6 M): potently inhibited
Inhibition of [125I]MIBG uptake in HEK-NET cells (in words) (NET; 1 h, substrate 10^−6 M): no significant inhibitory effect at low concentrations
Inhibition of [3H]serotonin uptake in human platelets (in words) ([1]; co-incubation): effective, inhibitor concentration-dependent inhibition
Inhibition of [125I]MIBG uptake in human platelets (in words) ([2]; co-incubation, 4 h): effective, inhibitor concentration-dependent inhibition
Effect on [125I]MIBG accumulation in neuroblastoma xenografts (in words) [4]: no effect; also recorded: not significantly affected
Reduction of pheochromocytoma-associated radioactivity ([5]; PC12 xenografts, p < 0.002): 64%
50 % effective dose ([7]; oral, ref (2)): 13^c mg/kg

CN(C)CCCN1c2ccccc2CCc2ccccc21 [Imipramine, imipramine-HCl]
Inhibition of [125I]MIBG uptake in human platelets (in words) [2]: able to inhibit
Effect on MIBG uptake in neuroblastoma cells (in words) [3]: profound inhibitory effect

N=C(N)NCc1cccc(I)c1 [MIBG, meta-iodobenzylguanidine]
Km (SERT [10]; [125I]MIBG as substrate, HEK-SERT, 1 h incubation): 9.7 µM
Km (NET; [125I]MIBG as substrate, HEK-NET, 1 h incubation): 0.49 µM

N=C(N)NCc1cccc([131I])c1 [MIBG, meta-iodobenzylguanidine]
Nonspecific uptake, share of total uptake (SERT [10]; SERT-transfected cells, substrate concentration 10^−5 M): 22%
Catalytic efficiency (ratio Vmax/Km) (SERT [10]; [12]): 0.0077
Vmax (SERT [10]; [12]): 0.074 μmol/mg protein/min
Nonspecific uptake, share of total uptake (NET; NET-transfected cells, substrate concentration 10^−5 M): 33%
Catalytic efficiency (ratio Vmax/Km) (NET; [13]): 0.045
Vmax (NET; [13]): 0.022 μmol/mg protein/min
Total uptake (percentage of added radioactivity) ([2]; control platelet samples without SSRIs, MIBG, n = 17): 23.6 ± 3.6%
Nonspecific uptake (percentage of controls) ([2]; platelets, MIBG): 12.3 ± 2.5%

NCCC(Oc1ccc(C(F)(F)F)cc1)c1ccccc1 (centres unmarked) [Norfluoxetine, norfluoxetine-HCl]
IC50 ([3]; 10^−8 M substrate, 37 °C, 4 h, read-out: IC50 of uptake inhibition, SK-N-SH, [125I]MIBG): 2760 nM
Elimination half-life [6]: 170 to 360 h

Fc1ccc([C@@H]2CCNC[C@H]2COc2ccc3c(c2)OCO3)cc1 [Paroxetine, paroxetine-HCl]
Effect on [125I]MIBG accumulation in neuroblastoma xenografts (in words) [4]: no effect; also recorded: not significantly affected
Bioavailability ([6]; extensive first-pass metabolism): approximately 50%
50 % effective dose ([7]; i.p., ref (1)): 0.2^c mg/kg

CN[C@H]1CC[C@@H](c2ccc(Cl)c(Cl)c2)c2ccccc21 [Sertraline, sertraline-HCl]
Effect on [125I]MIBG accumulation in neuroblastoma xenografts (in words) [4]: not significantly affected
Effect on tumor MIBG uptake in PC12 pheochromocytoma xenografts (in words) [5]: no significant difference
Fraction absorbed after oral ingestion [6]: 44%
50 % effective dose ([7]; i.p., ref (1)): 1.5^c mg/kg
50 % effective dose ([7]; oral, ref (2)): 1.0^c mg/kg

CNCCCC1(c2ccc(F)cc2)OCc2cc(C#N)ccc21 (centres unmarked) [desmethylcitalopram]
Potency and selectivity in inhibiting SERT in vitro compared with citalopram (in words) (SERT [11]): only slightly less potent and selective than citalopram
